“And” between values parts separate entries of the source, which are not always exact repeats. Equal values may be shown once.
tested on: cos-7 cells; experiment: DNA transfection: luciferase expression relative to Lipofectamine 2000; type: cell-based; conditions: lipid/DNA 2.5 w/w; 300 ng Luciferase DNA per well; luciferase assay after 48 hours
Description: 14,000 cos-7 cells (ATCC, Manassas, Va.) were seeded into each well of a solid white or clear 96 well plate (Corning-Costar, Kennebunk, Me.) and allowed to attached overnight in growth medium, composed of: 500 ml phenol red minus DMEM, 50 ml heat inactivated FBS, 5 ml penicillin/streptomycin (Invitrogen, Carlsbad, Calif.).
A small liquot of lipid was tranferred to an Eppendorf tube. Based on the mass of the lipid in the tube, sterile 25 mM sodium acetate buffer was added to each tube to yield a concentration of 60 mg/ml. The resulting mixture was vortexed for approximately 20 minutes until the lipid was fully dissolved. DNA was prepared based on 300 ng DNA per well of a 96-well plate. 291 μg of Lc DNA was dissolved in 9210 μl of 25 mM sodium acetate buffer. Aliquots of 30 μl of DNA solution were added to each well expect for the last column which was reserved for the Lipo2000 standard. For the last column of the plate, 61 μg of DNA was added to 1940 μl Optimem. 150 μl of media/Optimem was added to each well of plates. 50 μl of lipid solution was aliquoted into wells of robot plate. The following amounts were aliquoted to obtain the correct ratios of DNA to lipid:
In quadruplicate, 30 μl of lipid was aliquoted onto DNA in four rows for each ratio. For the Lipo2000 control (2.5 w/w ratio to DNA), 152.5 μg of Lipo sample was aliquoted into 1847.5 μl of Optimem. 30 μl of this solution was aliquoted onto DNA in the Optimem in the last columns of each plate. The plates were incubated for 15-20 minutes, and then 36.5 μl of lipid+DNA complexes was transferred into 150 μl of media/Optimem, then add to cells. The media was aspirated off the cells, and 105 μl of the lipid/DNA/media/Optimem solution was added to the cells. The luciferase assay was performed after 48 hours.
Luminescence was analyzed using bright-glo assay kits (Promega). Briefly, 100 μl of bright-glo solution was added to each well of the microtiter plate containing media and cells. Luminescence was measured using a Mithras Luminometer (Berthold, Oak Ridge, Tenn.). In some cases, a neutral density filter (Chroma, Brattleboro, Vt.) was used to prevent saturation of the luminometer. A standard curve for Luciferase was generated by titration of Luciferase enzyme (Promega) into growth media in white microtiter plates. Luciferase in ng per well are calculated for each of the lipids at 2.5 w/w, 5 w/w, 10 w/w, 15 w/w, 20 w/w, and 25 w/w lipid to DNA based on the standard curve.
The table below summarizes the data as a % of the luciferase activity obtained from the use of Lipofectamine 2000. The table indicates the best lipids for transfection.

For CCCCCCCCCCOC(=O)CCN(CCCCCO)CCC(=O)OCCCCCCCCCC [LB32], which “Luciferase expression as a percentage of that achieved using Lipofectamine 2000” value (“Luciferase expression as a percentage” below) is on record?
Its value is 0.1%.

With CCCCCCCCCCOC(=O)CCN(CCC(=O)OCCCCCCCCCC)CC(C)(C)CO [LB33] as the compound, how does the “Luciferase expression as a percentage” value read?
Its value is 0.1%.

How did the “Luciferase expression as a percentage” value turn out when CCCCCCCCCCOC(=O)CCN(CCC(=O)OCCCCCCCCCC)C(CC)(CO)CO [LB34] was run?
The value was 0.1%.

With CCCCCCCCCCOC(=O)CCN(CCCCCCO)CCC(=O)OCCCCCCCCCC [LB36] as the compound, how does the “Luciferase expression as a percentage” value read?
Its value is 0.1%.

How did the “Luciferase expression as a percentage” value turn out when CCCCCCCCCCOC(=O)CCN(CCC(=O)OCCCCCCCCCC)C1CCC(O)CC1 (stereo not drawn) [LB38] was run?
Its value is 0.7%.

How did the “Luciferase expression as a percentage” value turn out when CCCCCCCCCCOC(=O)CCN(C)CCN(C)CCC(=O)OCCCCCCCCCC [LB60] was run?
The value was 0.4%.

CCCCCCCCCCOC(=O)CCN(CC)CCN(CC)CCC(=O)OCCCCCCCCCC [LB61] was tested. Which “Luciferase expression as a percentage” value did it give?
The value was 0.1%.

Which “Luciferase expression as a percentage” value does the source give for CCCCCCCCCCOC(=O)CCN(CCN(CCC(=O)OCCCCCCCCCC)C(C)C)C(C)C [LB62] here?
Its value is 0.1%.

How did the “Luciferase expression as a percentage” value turn out when CCCCCCCCCCOC(=O)CCN(C)CCCN(C)CCC(=O)OCCCCCCCCCC [LB63] was run?
The value was 0.1%.

same assay, conditions: lipid/DNA 5 w/w; 300 ng Luciferase DNA per well; luciferase assay after 48 hours

For CCCCCCCCCCOC(=O)CCN(CCCCCO)CCC(=O)OCCCCCCCCCC [LB32], which “Luciferase expression as a percentage” value is on record?
The value was 0.1%.

For CCCCCCCCCCOC(=O)CCN(CCC(=O)OCCCCCCCCCC)CC(C)(C)CO [LB33], which “Luciferase expression as a percentage” value is on record?
Its value is 0.1%.

For CCCCCCCCCCOC(=O)CCN(CCC(=O)OCCCCCCCCCC)C(CC)(CO)CO [LB34], which “Luciferase expression as a percentage” value is on record?
The value was 0.1%.

For CCCCCCCCCCOC(=O)CCN(CCCCCCO)CCC(=O)OCCCCCCCCCC [LB36], which “Luciferase expression as a percentage” value is on record?
Its value is 0.1%.

With CCCCCCCCCCOC(=O)CCN(CCC(=O)OCCCCCCCCCC)C1CCC(O)CC1 (stereo not drawn) [LB38] as the compound, how does the “Luciferase expression as a percentage” value read?
The value was 0.8%.

How did the “Luciferase expression as a percentage” value turn out when CCCCCCCCCCOC(=O)CCN(C)CCN(C)CCC(=O)OCCCCCCCCCC [LB60] was run?
Its value is 0.4%.

CCCCCCCCCCOC(=O)CCN(CC)CCN(CC)CCC(=O)OCCCCCCCCCC [LB61] was tested. Which “Luciferase expression as a percentage” value did it give?
Its value is 0.1%.

Which “Luciferase expression as a percentage” value does the source give for CCCCCCCCCCOC(=O)CCN(CCN(CCC(=O)OCCCCCCCCCC)C(C)C)C(C)C [LB62] here?
Its value is 0.1%.

CCCCCCCCCCOC(=O)CCN(C)CCCN(C)CCC(=O)OCCCCCCCCCC [LB63] was tested. Which “Luciferase expression as a percentage” value did it give?
Its value is 0.2% and 0.1%.

same assay, conditions: lipid/DNA 10 w/w; 300 ng Luciferase DNA per well; luciferase assay after 48 hours

How did the “Luciferase expression as a percentage” value turn out when CCCCCCCCCCOC(=O)CCN(CCCCCO)CCC(=O)OCCCCCCCCCC [LB32] was run?
The value was 0.1%.

For CCCCCCCCCCOC(=O)CCN(CCC(=O)OCCCCCCCCCC)CC(C)(C)CO [LB33], which “Luciferase expression as a percentage” value is on record?
Its value is 0.1%.

Which “Luciferase expression as a percentage” value does the source give for CCCCCCCCCCOC(=O)CCN(CCC(=O)OCCCCCCCCCC)C(CC)(CO)CO [LB34] here?
Its value is 0.2%.

How did the “Luciferase expression as a percentage” value turn out when CCCCCCCCCCOC(=O)CCN(CCCCCCO)CCC(=O)OCCCCCCCCCC [LB36] was run?
The value was 0.1%.

With CCCCCCCCCCOC(=O)CCN(CCC(=O)OCCCCCCCCCC)C1CCC(O)CC1 (stereo not drawn) [LB38] as the compound, how does the “Luciferase expression as a percentage” value read?
The value was 0.7%.

For CCCCCCCCCCOC(=O)CCN(C)CCN(C)CCC(=O)OCCCCCCCCCC [LB60], which “Luciferase expression as a percentage” value is on record?
The value was 0.4%.

With CCCCCCCCCCOC(=O)CCN(CC)CCN(CC)CCC(=O)OCCCCCCCCCC [LB61] as the compound, how does the “Luciferase expression as a percentage” value read?
The value was 0.1%.

How did the “Luciferase expression as a percentage” value turn out when CCCCCCCCCCOC(=O)CCN(CCN(CCC(=O)OCCCCCCCCCC)C(C)C)C(C)C [LB62] was run?
Its value is 0.1%.

How did the “Luciferase expression as a percentage” value turn out when CCCCCCCCCCOC(=O)CCN(C)CCCN(C)CCC(=O)OCCCCCCCCCC [LB63] was run?
Its value is 0.1%.

same assay, conditions: lipid/DNA 15 w/w; 300 ng Luciferase DNA per well; luciferase assay after 48 hours

CCCCCCCCCCOC(=O)CCN(CCCCCO)CCC(=O)OCCCCCCCCCC [LB32] was tested. Which “Luciferase expression as a percentage” value did it give?
Its value is 0.1%.

For CCCCCCCCCCOC(=O)CCN(CCC(=O)OCCCCCCCCCC)CC(C)(C)CO [LB33], which “Luciferase expression as a percentage” value is on record?
The value was 0.1%.

For CCCCCCCCCCOC(=O)CCN(CCC(=O)OCCCCCCCCCC)C(CC)(CO)CO [LB34], which “Luciferase expression as a percentage” value is on record?
The value was 0.4%.

With CCCCCCCCCCOC(=O)CCN(CCCCCCO)CCC(=O)OCCCCCCCCCC [LB36] as the compound, how does the “Luciferase expression as a percentage” value read?
The value was 0.1%.

Which “Luciferase expression as a percentage” value does the source give for CCCCCCCCCCOC(=O)CCN(CCC(=O)OCCCCCCCCCC)C1CCC(O)CC1 (stereo not drawn) [LB38] here?
Its value is 0.8%.

CCCCCCCCCCOC(=O)CCN(C)CCN(C)CCC(=O)OCCCCCCCCCC [LB60] was tested. Which “Luciferase expression as a percentage” value did it give?
The value was 0.4%.

Which “Luciferase expression as a percentage” value does the source give for CCCCCCCCCCOC(=O)CCN(CC)CCN(CC)CCC(=O)OCCCCCCCCCC [LB61] here?
Its value is 0.1%.

For CCCCCCCCCCOC(=O)CCN(CCN(CCC(=O)OCCCCCCCCCC)C(C)C)C(C)C [LB62], which “Luciferase expression as a percentage” value is on record?
The value was 0.1%.

CCCCCCCCCCOC(=O)CCN(C)CCCN(C)CCC(=O)OCCCCCCCCCC [LB63] was tested. Which “Luciferase expression as a percentage” value did it give?
The value was 1.0% and 0.1%.

same assay, conditions: lipid/DNA 20 w/w; 300 ng Luciferase DNA per well; luciferase assay after 48 hours

Which “Luciferase expression as a percentage” value does the source give for CCCCCCCCCCOC(=O)CCN(CCCCCO)CCC(=O)OCCCCCCCCCC [LB32] here?
Its value is 0.1%.

Which “Luciferase expression as a percentage” value does the source give for CCCCCCCCCCOC(=O)CCN(CCC(=O)OCCCCCCCCCC)CC(C)(C)CO [LB33] here?
The value was 0.1%.

CCCCCCCCCCOC(=O)CCN(CCC(=O)OCCCCCCCCCC)C(CC)(CO)CO [LB34] was tested. Which “Luciferase expression as a percentage” value did it give?
Its value is 0.1%.

How did the “Luciferase expression as a percentage” value turn out when CCCCCCCCCCOC(=O)CCN(CCCCCCO)CCC(=O)OCCCCCCCCCC [LB36] was run?
Its value is 0.1%.

CCCCCCCCCCOC(=O)CCN(CCC(=O)OCCCCCCCCCC)C1CCC(O)CC1 (stereo not drawn) [LB38] was tested. Which “Luciferase expression as a percentage” value did it give?
Its value is 0.7%.

Which “Luciferase expression as a percentage” value does the source give for CCCCCCCCCCOC(=O)CCN(C)CCN(C)CCC(=O)OCCCCCCCCCC [LB60] here?
The value was 0.4%.

CCCCCCCCCCOC(=O)CCN(CC)CCN(CC)CCC(=O)OCCCCCCCCCC [LB61] was tested. Which “Luciferase expression as a percentage” value did it give?
The value was 0.1%.

CCCCCCCCCCOC(=O)CCN(CCN(CCC(=O)OCCCCCCCCCC)C(C)C)C(C)C [LB62] was tested. Which “Luciferase expression as a percentage” value did it give?
Its value is 0.1%.

For CCCCCCCCCCOC(=O)CCN(C)CCCN(C)CCC(=O)OCCCCCCCCCC [LB63], which “Luciferase expression as a percentage” value is on record?
The value was 0.1%.

same assay, conditions: lipid/DNA 25 w/w; 300 ng Luciferase DNA per well; luciferase assay after 48 hours

Which “Luciferase expression as a percentage” value does the source give for CCCCCCCCCCOC(=O)CCN(CCCCCO)CCC(=O)OCCCCCCCCCC [LB32] here?
Its value is 0.1%.

With CCCCCCCCCCOC(=O)CCN(CCC(=O)OCCCCCCCCCC)CC(C)(C)CO [LB33] as the compound, how does the “Luciferase expression as a percentage” value read?
Its value is 0.1%.

Which “Luciferase expression as a percentage” value does the source give for CCCCCCCCCCOC(=O)CCN(CCC(=O)OCCCCCCCCCC)C(CC)(CO)CO [LB34] here?
The value was 0.1%.

With CCCCCCCCCCOC(=O)CCN(CCCCCCO)CCC(=O)OCCCCCCCCCC [LB36] as the compound, how does the “Luciferase expression as a percentage” value read?
Its value is 0.1%.

For CCCCCCCCCCOC(=O)CCN(CCC(=O)OCCCCCCCCCC)C1CCC(O)CC1 (stereo not drawn) [LB38], which “Luciferase expression as a percentage” value is on record?
Its value is 0.8%.

How did the “Luciferase expression as a percentage” value turn out when CCCCCCCCCCOC(=O)CCN(C)CCN(C)CCC(=O)OCCCCCCCCCC [LB60] was run?
Its value is 0.4%.

CCCCCCCCCCOC(=O)CCN(CC)CCN(CC)CCC(=O)OCCCCCCCCCC [LB61] was tested. Which “Luciferase expression as a percentage” value did it give?
The value was 0.1%.

How did the “Luciferase expression as a percentage” value turn out when CCCCCCCCCCOC(=O)CCN(CCN(CCC(=O)OCCCCCCCCCC)C(C)C)C(C)C [LB62] was run?
The value was 0.1%.

For CCCCCCCCCCOC(=O)CCN(C)CCCN(C)CCC(=O)OCCCCCCCCCC [LB63], which “Luciferase expression as a percentage” value is on record?
Its value is 0.2% and 0.1%.
